# Test results from PubChem BioAssay AID248 (DTP/NCI, 2004).
# Where “and” joins values, the source holds several entries; their conditions need not be identical. Equal entries are not always repeated. Toxic doses and inconclusive results are not listed.
# System: L1210 leukemia ip in BDF1 mice, survival T/C
# Assay: NCI In Vivo Anticancer Drug Screen. Data for tumor model L1210 Leukemia (intraperitoneal) in B6D2F1 (BDF1) mice
# Conditions: endpoint: mean survival time, higher = longer survival
# In short: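 Transplanted-tumor mice were given test agent; controls received vehicle only. Survival readings from the two groups were divided (treated over control).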
# [1] = dose: 50.0 mg/kg/injection, schedule: Q01DX009 (ip), vehicle: saline
# [2] = dose: 75.0 mg/kg/injection, schedule: Q01DX001 (ip), vehicle: saline
# [3] = dose: 100.0 mg/kg/injection, schedule: Q01DX009 (ip), vehicle: Klucel (hydroxypropylcellulose) (HPC)
# [4] = dose: 100.0 mg/kg/injection, schedule: Q01DX009 (ip), vehicle: saline
# [5] = dose: 100.0 mg/kg/injection, schedule: Q04DX003 (ip), vehicle: Klucel (hydroxypropylcellulose) (HPC)
# [6] = dose: 150.0 mg/kg/injection, schedule: Q01DX001 (ip), vehicle: saline
# [7] = dose: 200.0 mg/kg/injection, schedule: Q01DX009 (ip), vehicle: Klucel (hydroxypropylcellulose) (HPC)
# [8] = dose: 200.0 mg/kg/injection, schedule: Q01DX009 (ip), vehicle: saline
# [9] = dose: 200.0 mg/kg/injection, schedule: Q04DX003 (ip), vehicle: Klucel (hydroxypropylcellulose) (HPC)
# [10] = dose: 400.0 mg/kg/injection, schedule: Q04DX003 (ip), vehicle: Klucel (hydroxypropylcellulose) (HPC)
# [11] = dose: 50.0 mg/kg/injection, schedule: Q01DX001 (ip), vehicle: saline
# [12] = dose: 100.0 mg/kg/injection, schedule: Q01DX001 (ip), vehicle: saline
# [13] = dose: 200.0 mg/kg/injection, schedule: Q01DX001 (ip), vehicle: saline
# [14] = dose: 100.0 mg/kg/injection, schedule: Q01DX009 (ip), vehicle: saline with Tween-80
# [15] = dose: 100.0 mg/kg/injection, schedule: Q04DX003 (ip), vehicle: saline with Tween-80
# [16] = dose: 200.0 mg/kg/injection, schedule: Q01DX009 (ip), vehicle: saline with Tween-80
# [17] = dose: 200.0 mg/kg/injection, schedule: Q04DX003 (ip), vehicle: saline with Tween-80
# [18] = dose: 400.0 mg/kg/injection, schedule: Q01DX009 (ip), vehicle: saline with Tween-80
# [19] = dose: 400.0 mg/kg/injection, schedule: Q04DX003 (ip), vehicle: saline with Tween-80
# [20] = dose: 400.0 mg/kg/injection, schedule: Q01DX001 (ip), vehicle: saline
# [21] = dose: 100.0 mg/kg/injection, schedule: Q04DX002 (ip), vehicle: Klucel (hydroxypropylcellulose) (HPC)
# [22] = dose: 200.0 mg/kg/injection, schedule: Q04DX002 (ip), vehicle: Klucel (hydroxypropylcellulose) (HPC)
# [23] = dose: 400.0 mg/kg/injection, schedule: Q04DX002 (ip), vehicle: Klucel (hydroxypropylcellulose) (HPC)
# [24] = dose: 100.0 mg/kg/injection, schedule: Q01DX001 (ip), vehicle: carboxymethylcellulose (CMC)
# [25] = dose: 200.0 mg/kg/injection, schedule: Q01DX001 (ip), vehicle: carboxymethylcellulose (CMC)
smiles,measurement,setting,value
CC(C)NCC(O)c1ccc(O)c(O)c1 (centres undefined),T/C,[1],103 % of control
same,T/C,[2],105 % of control
same,T/C,[3],108 % of control and 111 % of control
same,T/C,[4],110 % of control
same,T/C,[5],104 % of control
same,T/C,[6],100 % of control
same,T/C,[7],113 % of control
same,T/C,[8],114 % of control
same,T/C,[9],100 % of control
same,T/C,"dose: 300.0 mg/kg/injection, schedule: Q01DX001 (ip), vehicle: saline",123 % of control
same,T/C,[10],100 % of control
CCC(Br)(CC)C(=O)c1ccc(OCC(=O)O)c(Cl)c1Cl,T/C,[11],104 % of control
same,T/C,[12],96 % of control
same,T/C,[13],102 % of control
CC(O)C(O)C(=O)NN (centres undefined),T/C,[1],91 % of control
same,T/C,[4],98 % of control
same,T/C,[8],98 % of control
O=C(Nc1ccc(F)c([N+](=O)[O-])c1)Nc1cc(C(F)(F)F)ccc1Cl,T/C,[3],101 % of control
same,T/C,[7],90 % of control
same,T/C,"dose: 400.0 mg/kg/injection, schedule: Q01DX009 (ip), vehicle: Klucel (hydroxypropylcellulose) (HPC)",89 % of control
CCCOC(=O)C#CC(=O)OCCC,T/C,"dose: 1.56 mg/kg/injection, schedule: Q01DX001 (ip), vehicle: carboxymethylcellulose (CMC)",101 % of control
same,T/C,"dose: 1.56 mg/kg/injection, schedule: Q01DX009 (ip), vehicle: carboxymethylcellulose (CMC)",93 % of control
same,T/C,"dose: 1.56 mg/kg/injection, schedule: Q04DX002 (ip), vehicle: carboxymethylcellulose (CMC)",92 % of control and 98 % of control
same,T/C,"dose: 1.56 mg/kg/injection, schedule: Q04DX003 (ip), vehicle: carboxymethylcellulose (CMC)",101 % of control
same,T/C,"dose: 3.13 mg/kg/injection, schedule: Q01DX001 (ip), vehicle: carboxymethylcellulose (CMC)",94 % of control
same,T/C,"dose: 3.13 mg/kg/injection, schedule: Q01DX009 (ip), vehicle: carboxymethylcellulose (CMC)",92 % of control and 86 % of control
same,T/C,"dose: 3.13 mg/kg/injection, schedule: Q04DX002 (ip), vehicle: carboxymethylcellulose (CMC)",92 % of control and 98 % of control
same,T/C,"dose: 3.13 mg/kg/injection, schedule: Q04DX003 (ip), vehicle: carboxymethylcellulose (CMC)",98 % of control
same,T/C,"dose: 6.25 mg/kg/injection, schedule: Q01DX001 (ip), vehicle: carboxymethylcellulose (CMC)",97 % of control
same,T/C,"dose: 6.25 mg/kg/injection, schedule: Q01DX009 (ip), vehicle: carboxymethylcellulose (CMC)",93 % of control and 89 % of control
same,T/C,"dose: 6.25 mg/kg/injection, schedule: Q04DX002 (ip), vehicle: carboxymethylcellulose (CMC)",103 % of control and 104 % of control
same,T/C,"dose: 6.25 mg/kg/injection, schedule: Q04DX003 (ip), vehicle: carboxymethylcellulose (CMC)",106 % of control
CC(C)CCNCC(C)(C)OC(=O)c1ccc(N)cc1,T/C,"dose: 10.0 mg/kg/injection, schedule: Q01DX001 (ip), vehicle: saline",112 % of control
same,T/C,"dose: 20.0 mg/kg/injection, schedule: Q01DX001 (ip), vehicle: saline",100 % of control
same,T/C,"dose: 40.0 mg/kg/injection, schedule: Q01DX001 (ip), vehicle: saline",102 % of control
CCCCCCCCCCCC(=O)Nc1ccc2ccccc2c1,T/C,[14],93 % of control and 97 % of control
same,T/C,"dose: 100.0 mg/kg/injection, schedule: Q04DX002 (ip), vehicle: saline with Tween-80",105 % of control and 107 % of control
same,T/C,[15],105 % of control
same,T/C,[16],107 % of control and 88 % of control
same,T/C,"dose: 200.0 mg/kg/injection, schedule: Q04DX002 (ip), vehicle: saline with Tween-80",93 % of control and 89 % of control
same,T/C,[17],94 % of control
same,T/C,[18],96 % of control and 90 % of control
same,T/C,"dose: 400.0 mg/kg/injection, schedule: Q04DX002 (ip), vehicle: saline with Tween-80",94 % of control and 117 % of control
same,T/C,[19],95 % of control
C/C=C(\C#N)c1ccc(-c2ccccc2)cc1,T/C,"dose: 100.0 mg/kg/injection, schedule: Q01DX001 (ip), vehicle: saline with Tween-80",94 % of control
same,T/C,"dose: 200.0 mg/kg/injection, schedule: Q01DX001 (ip), vehicle: saline with Tween-80",91 % of control
same,T/C,"dose: 400.0 mg/kg/injection, schedule: Q01DX001 (ip), vehicle: saline with Tween-80",98 % of control
C=C(C)C1(CCCCC)C(=O)NC(=O)NC1=O,T/C,[2],101 % of control
same,T/C,[6],98 % of control
CN(C)N=Nc1ccc(C(=O)N/N=C/c2ccc(Br)cc2)cc1,T/C,[5],94 % of control
same,T/C,[9],104 % of control
same,T/C,[10],95 % of control
CCCCCCCCCCCCCCCCCC[As](=O)(O)CCCCCCCCCCCCCCCCCC,T/C,[11],97 % of control
same,T/C,[12],101 % of control
same,T/C,[13],91 % of control
same,T/C,[20],101 % of control
O=C(Nc1cccnc1)c1ccc([N+](=O)[O-])s1,T/C,"dose: 50.0 mg/kg/injection, schedule: Q01DX005 (ip), vehicle: saline",102 % of control
same,T/C,"dose: 100.0 mg/kg/injection, schedule: Q01DX005 (ip), vehicle: saline",117 % of control
same,T/C,"dose: 400.0 mg/kg/injection, schedule: Q01DX005 (ip), vehicle: saline",173 % of control
O=C(/C=N/O)Nc1ccccc1,T/C,[14],101 % of control
same,T/C,[16],101 % of control
same,T/C,[18],98 % of control
CN(C)/N=N/c1[nH]ncc1C(N)=O,T/C,[12],113 % of control
same,T/C,"dose: 108.0 mg/kg/injection, schedule: Q01DX009 (ip), vehicle: saline",176 % of control
same,T/C,"dose: 300.0 mg/kg/injection, schedule: Q01DX009 (ip), vehicle: saline",110 % of control
same,T/C,"dose: 600.0 mg/kg/injection, schedule: Q01DX001 (ip), vehicle: saline",156 % of control
S=C(c1ccccc1)N1CCOCC1,T/C,[21],100 % of control
same,T/C,[22],111 % of control
same,T/C,[23],96 % of control
CC(=O)c1cccc(NS(=O)(=O)c2ccc(Cl)cc2)c1,T/C,[21],94 % of control
same,T/C,[22],100 % of control
same,T/C,[23],91 % of control
Cc1cc(=O)[nH]c(N2CCOCC2)n1,T/C,[12],106 % of control
same,T/C,[13],101 % of control
COC(CC(=O)N1Cc2cc3ccccc3nc2/C1=C/c1ccco1)OC,T/C,[15],104 % of control
same,T/C,[17],96 % of control
same,T/C,[19],98 % of control
c1ccc([P+]2(Cc3cccc4ccccc34)CCc3[nH]c4ccccc4c3C2)cc1 (centres undefined),T/C,[5],96 % of control
same,T/C,[9],98 % of control
O=C(O)C1CC2C3(Cl)C(Cl)=C(Cl)C(Cl)C2(CC1c1c2ccc(=O)c(O)c-2oc2c(O)c(O)ccc12)C3(Cl)Cl (centres undefined),T/C,[5],96 % of control
same,T/C,[9],94 % of control
same,T/C,[10],96 % of control
O=[N+]([O-])c1ccc2c(c1)Cc1c-2cc(I)c(O)c1I,T/C,[24],96 % of control
same,T/C,[25],98 % of control
same,T/C,"dose: 400.0 mg/kg/injection, schedule: Q01DX001 (ip), vehicle: carboxymethylcellulose (CMC)",98 % of control
Nc1ccc2c(c1)Cc1c(F)ccc(F)c1-2,T/C,"dose: 50.0 mg/kg/injection, schedule: Q01DX001 (ip), vehicle: carboxymethylcellulose (CMC)",107 % of control
same,T/C,[24],102 % of control
same,T/C,[25],109 % of control
C[N+](C)(C)Cc1ccccc1C[N+](C)(C)C,T/C,[11],113 % of control
same,T/C,[12],101 % of control
same,T/C,[13],97 % of control
COC(=O)C1C(=O)OC(C)(C)C1c1ccccc1 (centres undefined),T/C,"dose: 44.0 mg/kg/injection, schedule: Q01DX001 (ip), vehicle: saline",95 % of control
same,T/C,"dose: 66.0 mg/kg/injection, schedule: Q01DX001 (ip), vehicle: saline",101 % of control
same,T/C,[12],100 % of control
same,T/C,[6],103 % of control
same,T/C,[13],91 % of control
same,T/C,[20],91 % of control
CCCC(NC(=O)CCl)C(=O)O (centres undefined),T/C,"dose: 100.0 mg/kg/injection, schedule: Q04DX003 (ip), vehicle: saline",96 % of control
same,T/C,"dose: 200.0 mg/kg/injection, schedule: Q04DX003 (ip), vehicle: saline",101 % of control
COC(CNCc1ccccc1)OC,T/C,"dose: 75.0 mg/kg/injection, schedule: Q01DX001 (ip), vehicle: steriod suspending solution",101 % of control
same,T/C,"dose: 150.0 mg/kg/injection, schedule: Q01DX001 (ip), vehicle: steriod suspending solution",102 % of control
SCc1ccccc1,T/C,[12],91 % of control
same,T/C,[13],111 % of control
same,T/C,[20],105 % of control
